In PubChem BioAssay (NCI):
Values joined by “and” are separate entries in the source; they are usually repeats but may differ in a detail not shown here. Identical values can stand only once.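 Grown in 96-well plates, cells were treated for 48 hours with each compound at five concentrations. Insufficient inhibition: endpoint recorded as highest concentration tested. Abbreviation: GI50, concentration required for 50% inhibition of growth. The concentration for full growth arrest is given as TGI.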 Starred links: 1 amine or outer side, 2 acyl side, 3 side chain; linkers in the order of their positions; H or OH if unused. Positions of bridges follow the written chain, without caps; N, C: chain ends. Non-standard residues stand in square brackets, D forms with d. Residues, ends and D or L forms follow the SMILES beside them. Chains are numbered I, II in the order given. Actinocin(9to1) = Cc1c2oc3c(C)ccc(C(=O)[*:1])c3nc-2c(C(=O)[*:2])c(N)c1=O; NMeY = CN[CH](Cc1ccc(O)cc1)C(=O)O; Sar = CNCC(=O)O

Key:
Test in all cases: DTP human tumour cell line panel, 48 h
HCT-15 colon = test system: HCT-15 colon
SK-MEL-5 melanoma = test system: SK-MEL-5 melanoma
NCI-H522 lung = test system: NCI-H522 lung
NCI-H460 lung = test system: NCI-H460 lung
DU-145 prostate = test system: DU-145 prostate
M14 melanoma = test system: M14 melanoma
ACHN renal = test system: ACHN renal
OVCAR-8 ovarian = test system: OVCAR-8 ovarian
HCC-2998 colon = test system: HCC-2998 colon
UACC-62 melanoma = test system: UACC-62 melanoma

| Structure (SMILES) | TGI (HCT-15 colon) | TGI (SK-MEL-5 melanoma) | TGI (NCI-H522 lung) | TGI (NCI-H460 lung) | TGI (DU-145 prostate) | TGI (M14 melanoma) | TGI (ACHN renal) | TGI (OVCAR-8 ovarian) | TGI (HCC-2998 colon) | TGI (UACC-62 melanoma) | GI50 (HCT-15 colon) | GI50 (SK-MEL-5 melanoma) | GI50 (NCI-H460 lung) | GI50 (DU-145 prostate) | GI50 (M14 melanoma) | GI50 (HCC-2998 colon) | GI50 (UACC-62 melanoma) | GI50 (NCI-H522 lung) | GI50 (ACHN renal) | GI50 (OVCAR-8 ovarian) |
| --- | --- | --- | --- | --- | --- | --- | --- | --- | --- | --- | --- | --- | --- | --- | --- | --- | --- | --- | --- | --- |
| O=[N+]([O-])c1ccc(CN(CCCl)OCCCl)cc1 | > 100 µM | > 100 µM | > 100 µM | > 100 µM | > 100 µM | > 100 µM | > 100 µM | > 100 µM | > 100 µM | > 100 µM |  |  |  |  |  |  |  |  |  |  |
| COC(=O)C1=C(OC(=O)/C(=C/c2ccc(Cl)cc2)c2ccc(Cl)cc2)C(C(=O)OC)[C@@]2(O)[C@@H](C(=O)OC)[C@H](C)C[C@@H]1[C@@H]2C(=O)OC (some centres not stated) | > 100 µM | > 100 µM | > 67.3 µM | > 100 µM | > 100 µM | > 100 µM | > 100 µM | > 100 µM | > 100 µM | > 100 µM |  |  |  |  |  |  |  |  |  |  |
| CN1CCc2c([nH]c3ccccc23)C1 | > 100 µM | > 100 µM | > 100 µM | > 100 µM | > 100 µM | > 100 µM | > 100 µM | > 100 µM | > 100 µM | > 100 µM |  |  |  |  |  |  |  |  |  |  |
| CC1(C)OC(C(=O)Nc2cc3c4ccccc4ccc3c3ccccc23)C(C(=O)N2CCCCC2)O1 (configuration not stated) | > 100 µM | > 100 µM | > 28.3 µM | 27.7 µM | > 100 µM | > 100 µM | > 100 µM | > 100 µM | > 100 µM | > 100 µM |  |  |  |  |  |  |  |  |  |  |
| Nc1ccc2c(c1)C(=O)N1CCC[C@H]1C(=O)N2 | > 100 µM | > 100 µM | > 100 µM | > 100 µM | > 100 µM | > 100 µM | > 100 µM | > 100 µM | > 100 µM | > 100 µM |  |  |  |  |  |  |  |  |  |  |
| CC1=C(C)CC2C(=O)N(c3cc(C(C)(C)C)ccc3C(C)(C)C)C(=O)C2C1 (configuration not stated) | > 100 µM | > 100 µM | 23.9 µM | > 100 µM | > 100 µM | > 100 µM | 23.2 µM | > 100 µM | > 100 µM | 31.8 µM |  |  |  |  |  |  |  |  |  |  |
| Cc1c2oc3c(C)ccc(C(=O)NC4C(=O)NC(C(C)C)C(=O)N5CCCC5C(=O)N(C)CC(=O)N(C)C(Cc5ccc(O)cc5)C(=O)OC4C)c3nc-2c(C(=O)NC2C(=O)NC(C(C)C)C(=O)N3CCCC3C(=O)N(C)CC(=O)N(C)C(Cc3ccc(O)cc3)C(=O)OC2C)c(N)c1=O (configuration not stated) (I: TVP[Sar][NMeY] / II: TVP[Sar][NMeY]; ester I:1-I:C, II:1-II:C; linker I:N-II:N via Actinocin(9to1); configuration not given here) | > 1 µM | 0.221 µM and 0.0252 µM | 0.11 µM and 0.031 µM | > 1 µM | > 1 µM | > 0.793 µM and 0.229 µM | > 1 µM | 0.612 µM | 0.277 µM and 0.169 µM | 0.157 µM and 0.0213 µM | 988 nM and 116 nM | 22.7 nM and 6.12 nM | 5.6 nM and 0.964 nM | 68.7 nM and 30.2 nM | 175 nM and 51.3 nM | 104 nM and 11.2 nM | 23.5 nM and 5.7 nM |  |  |  |
| BrC1=C(Br)C2(SCCS2)[C@H]2C[C@@H]1c1ccccc12 | > 100 µM | > 41.6 µM | > 100 µM | > 100 µM | > 100 µM | > 100 µM | > 100 µM | > 100 µM | > 89.6 µM | > 100 µM |  |  |  |  |  |  |  |  |  |  |
| NS(=O)(=O)c1ccc(/C=C/c2ccc(O)c(O)c2)cc1 | > 100 µM | 29.6 µM | 4.79 µM | > 100 µM | > 100 µM | > 100 µM | > 100 µM | 56.5 µM | 41.7 µM | 42.2 µM | 13900 nM |  |  |  |  |  | 23300 nM | 2250 nM | 20.4 µM | 16.7 µM |
| O=c1[nH]nnc2c1sc1ncccc12 | > 100 µM | > 100 µM | > 100 µM | > 100 µM | > 100 µM | > 100 µM | > 100 µM | > 100 µM | > 100 µM | > 100 µM |  |  |  |  |  |  |  |  |  |  |
| COc1ccc(C2SC(N)=Nc3c2c(C)nn3C(=O)c2ccncc2)cc1OC (configuration not stated) | > 10 µM | > 10 µM | > 10 µM | > 10 µM | > 10 µM | > 10 µM | > 10 µM | > 10 µM | > 10 µM | > 10 µM |  |  |  |  |  |  |  |  |  |  |
| Nc1c(C(=O)O)nnc2ccc(Cl)cc12 | > 100 µM | > 100 µM | > 100 µM | > 100 µM | > 100 µM | > 100 µM | > 100 µM | > 100 µM | > 100 µM | > 100 µM |  |  |  |  |  |  |  |  |  |  |
| Cc1c(C)c2c(c(N)c1C#N)C(=O)N(NC(=O)c1ccccc1)C2=O | > 100 µM | > 100 µM | > 100 µM | > 100 µM | > 100 µM | > 100 µM | > 100 µM | > 100 µM | > 100 µM | > 100 µM |  |  |  |  |  |  |  |  |  |  |
| CC1CC(OP(=O)(OCc2ccccc2)OCc2ccccc2)[C@@H](OCc2ccccc2)C(OCc2ccccc2)C1OCc1ccccc1 (some centres not stated) | > 100 µM | > 100 µM | > 100 µM | > 100 µM | > 100 µM | > 100 µM | > 100 µM | > 100 µM | > 100 µM | > 100 µM |  |  |  |  |  |  |  |  |  |  |
| O=C(/C=C/c1ccccc1)Oc1cccc(O)c1 | 34.7 µM | > 100 µM | 29.5 µM | > 100 µM | > 100 µM | > 100 µM | > 100 µM | > 100 µM | > 100 µM | > 100 µM |  |  |  |  |  |  |  |  |  |  |
| COC[C@@H](N=CC(C)(C)C)C(C)C | > 100 µM | > 100 µM | > 100 µM | > 100 µM | > 100 µM | > 100 µM | > 100 µM | > 100 µM | > 100 µM | > 100 µM |  |  |  |  |  |  |  |  |  |  |
| [N-]=[N+]=Nc1c([N+](=O)[O-])c(=O)n(-c2ccccc2)c2ccccc12 | 64.6 µM | 59.5 µM | > 100 µM | > 100 µM | > 100 µM | 73.1 µM | 85.5 µM | 48.9 µM | > 100 µM | 59 µM |  |  |  |  |  |  |  |  |  |  |
| C[n+]1c2ccc(Cl)cc2nc2cc(-c3ccccc3)ccc21 | 39 µM | 24.3 µM | 37.9 µM | 67.3 µM | 50.8 µM | 27.7 µM | 39.7 µM | 16 µM | 31.7 µM | 43.8 µM |  |  |  |  |  |  |  |  |  |  |
| CCOC1(OCC)C2C=CC1C(COS(=O)(=O)c1ccc(C)cc1)C2COS(=O)(=O)c1ccc(C)cc1 (configuration not stated) | > 100 µM | 31 µM | 57.1 µM | > 100 µM | > 100 µM | 96.5 µM | > 100 µM | > 100 µM | > 100 µM | > 100 µM |  |  |  |  |  |  |  |  |  |  |
